Experimental data as given in patent US20250346585A1 (Alexion Pharmaceuticals, Inc., priority 2022, published 2025).
Structures can show the parent of a compound that is named as a salt.

Each molecule was assayed against Human complement C1s enzyme (Homo sapiens (Human), UniProt P09871) (assay: Human C1s enzyme assay). Settings: Human C1s enzyme assay of Example 3; read-out: IC50 (Stars).
Format: biochemical
How it was run: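 Purified serum-derived human C1s (1.16 nM final) preincubated 5 min at room temperature with compound in 50 mM Tris, 1 M NaCl, pH 7.5. Z-L-Lys-SBzl thioester substrate and DTNB added (100 μM each, final); A405 read every 30 s for 30 min. IC50 from nonlinear regression of reaction rates against compound concentration.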

Sequence of Human complement C1s enzyme (P09871 438-688 limits assumed): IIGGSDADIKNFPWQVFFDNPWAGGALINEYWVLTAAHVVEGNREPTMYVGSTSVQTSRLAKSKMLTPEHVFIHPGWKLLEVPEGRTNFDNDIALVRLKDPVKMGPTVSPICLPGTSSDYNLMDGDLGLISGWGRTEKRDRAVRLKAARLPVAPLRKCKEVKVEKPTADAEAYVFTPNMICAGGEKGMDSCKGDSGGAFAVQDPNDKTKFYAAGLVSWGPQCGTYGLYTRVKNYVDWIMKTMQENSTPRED
Sequence of Human complement C1s enzyme (P09871 16-437 partner limits assumed): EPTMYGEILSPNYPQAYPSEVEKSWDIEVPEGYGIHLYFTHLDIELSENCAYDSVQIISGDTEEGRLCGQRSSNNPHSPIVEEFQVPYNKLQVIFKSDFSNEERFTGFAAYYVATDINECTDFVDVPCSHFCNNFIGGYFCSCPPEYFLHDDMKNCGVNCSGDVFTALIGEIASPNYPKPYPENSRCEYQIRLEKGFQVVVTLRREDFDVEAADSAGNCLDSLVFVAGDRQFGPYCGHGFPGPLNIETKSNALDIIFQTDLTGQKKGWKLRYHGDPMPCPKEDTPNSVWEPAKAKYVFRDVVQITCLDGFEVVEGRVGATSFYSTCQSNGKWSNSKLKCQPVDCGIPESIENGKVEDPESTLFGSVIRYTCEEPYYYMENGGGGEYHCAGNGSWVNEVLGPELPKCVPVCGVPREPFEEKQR

Compound	IC50 [nM]
Cc1ccc(Oc2ccc(C(=O)NCC(=O)N3[C@H]4C[C@@]4(C)C[C@H]3C(=O)N[C@H](C)c3ccc(C(=N)N)s3)cc2)cc1 [Compound 26, (1S,3S,5S)—N—((R)-1-(5-carbamimidoylthiophen-2-yl)ethyl)-5-methyl-2-((4-(p-tolyloxy)benzoyl)glycyl)-2-azabicyclo[3.1.0]hexane-3-carboxamide]	< 100
C[C@@H](NC(=O)[C@@H]1C[C@@H](OC(F)F)CN1C(=O)CNC(=O)c1ccc(Oc2ccc(F)cc2)cc1)c1ccc(C(=N)N)s1 [Compound 57, (2S,4R)—N—((R)-1-(5-carbamimidoylthiophen-2-yl)ethyl)-4-(difluoromethoxy)-1-((4-(4-fluorophenoxy)benzoyl)glycyl)pyrrolidine-2-carboxamide]	< 100

Results, then the molecule that gave them:

IC50 [nM]	Compound
< 100	C[C@@H](NC(=O)[C@@H]1C[C@@H](OC(F)F)CN1C(=O)CNC(=O)c1ccc(Oc2ccc(C3CC3)cc2)cc1)c1cc(C(=N)N)cs1 [Compound 64, (2S,4R)—N—((R)-1-(4-carbamimidoylthiophen-2-yl)ethyl)-1-((4-(4-cyclopropylphenoxy)benzoyl)glycyl)-4-(difluoromethoxy)pyrrolidine-2-carboxamide hydrochloride]
< 100	C[C@@H](NC(=O)[C@@H]1C[C@@H](OC(F)F)CN1C(=O)CNC(=O)c1ccc(Oc2ccc(C#N)cc2)cc1)c1cc(C(=N)N)cs1 [Compound 49, (2S,4R)—N—((R)-1-(4-carbamimidoylthiophen-2-yl)ethyl)-1-((4-(4-cyanophenoxy)benzoyl)glycyl)-4-(difluoromethoxy)pyrrolidine-2-carboxamide]
< 100	C[C@@H](NC(=O)[C@@H]1CC2(CN1C(=O)CNC(=O)c1ccc(-c3ccccc3)cc1)OCCO2)c1cc(C(=N)N)cs1 [Compound 90, (S)-7-(([1,1′-biphenyl]-4-carbonyl)glycyl)-N—((R)-1-(4-carbamimidoylthiophen-2-yl)ethyl)-1,4-dioxa-7-azaspiro[4.4]nonane-8-carboxamide]

Same assay, conditions: Human complement C1s enzyme 1.16 nM, substrate Z-L-Lys-SBzl 100 μM, assay of Example 3; read-out: IC50 (Stars)

Compound	IC50 [nM]
COC(=O)/N=C(/N)c1csc([C@@H](C)NC(=O)[C@@H]2C[C@](F)(CF)CN2C(=O)CNC(=O)c2ccc(Oc3ccc(F)cc3)cc2)c1 [Compound 233, methyl ((E)-amino(5-((R)-1-((2S,4R)-4-fluoro-4-(fluoromethyl)-1-((4-(4-fluorophenoxy)benzoyl)glycyl)pyrrolidine-2-carboxamido)ethyl)thiophen-3-yl)methylene)carbamate]	< 100
N=C(N)c1csc([C@@H](CO)NC(=O)[C@@H]2CC3(CN2C(=O)CNC(=O)c2ccc4c(c2)-c2ccccc2C4(F)F)OCCO3)c1 [Compound 376, (S)—N—((R)-1-(4-carbamimidoylthiophen-2-yl)-2-hydroxyethyl)-7-((9,9-difluoro-9H-fluorene-3-carbonyl)glycyl)-1,4-dioxa-7-azaspiro [4.4]nonane-8-carboxamide]	< 100

Continued, values first:

IC50 [nM]	Compound
< 100	C[C@@H](NC(=O)[C@@H]1C[C@@H](OC(F)F)CN1C(=O)CNC(=O)c1ccc2sc3ccccc3c2c1)c1cc(C(=N)N)cs1 [Compound 353, (2S,4R)—N—((R)-1-(4-carbamimidoylthiophen-2-yl)ethyl)-1-((dibenzo[b,d]thiophene-2-carbonyl)glycyl)-4-(difluoromethoxy)pyrrolidine-2-carboxamide]
< 100	CO[C@@H]1C[C@@H](C(=O)N[C@H](C)c2cc(C(=N)N)cs2)N(C(=O)CNC(=O)c2ccc3cc4ccccc4cc3c2)C1 [Compound 278, (2S,4R)-1-((anthracene-2-carbonyl)glycyl)-N—((R)-1-(4-carbamimidoylthiophen-2-yl)ethyl)-4-methoxypyrrolidine-2-carboxamide]
< 100	C[C@@H](NC(=O)[C@@H]1CC2(CN1C(=O)CNC(=O)c1ccc(O)cc1)OCCO2)c1cc(C(=N)N)cs1 [Compound 272, (S)—N—((R)-1-(4-carbamimidoylthiophen-2-yl)ethyl)-7-((4-hydroxybenzoyl)glycyl)-1,4-dioxa-7-azaspiro[4.4]nonane-8-carboxamide]
